Experimental data from article PMC10460844, “Real‐Time Monitoring of Multitarget Antimicrobial Mechanisms of Peptoids Using Label‐Free Imaging with Optical Diffraction Tomography” (Advanced Science, 2023).
Square brackets hold non-standard residues; d marks the D form. Peptide text beside a SMILES is read from it. Gly(N(CH2)2(3-indolyl)) = O=C(O)CNCCc1c[nH]c2ccccc12; Nspe = C[C@H](NCC(=O)O)c1ccccc1; Nphe = O=C(O)CNCc1ccccc1; Nlys = NCCCCNCC(=O)O

Experiments:
rat erythrocytes = test: Hemolysis assay; format: cell-based; conditions: for HC10 / HC50: pH 7.4
Outline: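 Washed Sprague-Dawley rat erythrocytes (10% suspension in PBS pH 7.4) mixed with peptoids (0–100 µM), 60 min at 37 °C; supernatant A540 expressed as % of 1% Triton X-100 lysis. HC10/HC50 are concentrations giving 10%/50% hemolysis; Hmax is hemolysis at 100 µM.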

[1] = Analytical reversed-phase HPLC elution (hydrophobicity); format: physicochemical; conditions: Table S1; analytical RP-HPLC, SunFire C18, water/ACN + 0.1% TFA, 5 to 100% B linear over 30 min, 1 mL/min, UV 220 nm; approximate comparison of hydrophobicity
Outline: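 Analytical reversed-phase HPLC on a C18 column (4.6 × 250 mm, 5 μm) at 1 mL/min, water/acetonitrile each with 0.1% TFA. Held at 5% B for 2 min, then linear to 100% B over 30 min and held 5 min, with UV detection at 220 nm; retention time (tR) serves as hydrophobicity measure.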

Structure (SMILES)	HPLC elution [1] [% MeCN]	Hmax (100 µM) (rat erythrocytes) [%]	HC10 (rat erythrocytes) [µM]	HC50 (rat erythrocytes) [µM]
C[C@@H](c1ccccc1)N(CC(=O)N(CCCCN)CC(=O)N(CC(=O)N(CC(=O)N(CCCCN)CC(=O)N(CCc1c[nH]c2ccccc12)CC(=O)N(CCc1c[nH]c2ccccc12)CC(=O)N(CCCCN)CC(=O)N(CCc1c[nH]c2ccccc12)CC(=O)N(CCc1c[nH]c2ccccc12)CC(N)=O)[C@@H](C)c1ccccc1)[C@@H](C)c1ccccc1)C(=O)CN(C(=O)CNCCCCN)[C@@H](C)c1ccccc1 [peptoid 19] (H-[Nlys][Nspe][Nspe][Nlys][Nspe][Nspe][Nlys][Gly(N(CH2)2(3-indolyl))][Gly(N(CH2)2(3-indolyl))][Nlys][Gly(N(CH2)2(3-indolyl))][Gly(N(CH2)2(3-indolyl))]-NH2)	52.8	101.5±1.3	3.8	12.5
C[C@@H](c1ccccc1)N(CC(=O)N(CCCCN)CC(=O)N(CC(=O)N(CC(=O)N(CCCCN)CC(=O)N(CC(=O)N(CC(=O)N(CCCCN)CC(=O)N(CC(=O)N(CC(N)=O)Cc1ccccc1)Cc1ccccc1)[C@@H](C)c1ccccc1)[C@@H](C)c1ccccc1)[C@@H](C)c1ccccc1)[C@@H](C)c1ccccc1)C(=O)CN(C(=O)CNCCCCN)[C@@H](C)c1ccccc1 [peptoid 44] (H-[Nlys][Nspe][Nspe][Nlys][Nspe][Nspe][Nlys][Nspe][Nspe][Nlys][Nphe][Nphe]-NH2)	53.1	97.9±3.7	6.3	28.6
C[C@@H](c1ccccc1)N(CC(=O)N(CCCCN)CC(=O)N(CCc1c[nH]c2ccccc12)CC(=O)N(CCc1c[nH]c2ccccc12)CC(N)=O)C(=O)CN(CCCCN)C(=O)CN(CCCCN)C(=O)CN(Cc1ccccc1)C(=O)CN(Cc1ccccc1)C(=O)CN(CCCCN)C(=O)CN(C(=O)CN(C(=O)CNCCCCN)[C@@H](C)c1ccccc1)[C@@H](C)c1ccccc1 [peptoid 40] (H-[Nlys][Nspe][Nspe][Nlys][Nphe][Nphe][Nlys][Nlys][Nspe][Nlys][Gly(N(CH2)2(3-indolyl))][Gly(N(CH2)2(3-indolyl))]-NH2)	47.5	8.9±0.2	> 100	> 100
C[C@@H](c1ccccc1)N(CC(N)=O)C(=O)CN(C(=O)CN(CCCCN)C(=O)CN(CCc1c[nH]c2ccccc12)C(=O)CN(CCc1c[nH]c2ccccc12)C(=O)CN(CCCCN)C(=O)CN(CCc1c[nH]c2ccccc12)C(=O)CN(CCc1c[nH]c2ccccc12)C(=O)CN(CCCCN)C(=O)CN(C(=O)CN(C(=O)CNCCCCN)[C@@H](C)c1ccccc1)[C@@H](C)c1ccccc1)[C@@H](C)c1ccccc1 [peptoid 20]	52.7	106.7±3.5	8.2	33.9
C[C@@H](c1ccccc1)N(CC(=O)N(CCCCN)CC(=O)N(CC(=O)N(CC(=O)N(CCCCN)CC(=O)N(CC(=O)N(CC(=O)N(CCCCN)CC(=O)N(CC(=O)N(CC(=O)N(CCc1c[nH]c2ccccc12)CC(N)=O)[C@@H](C)c1ccccc1)[C@@H](C)c1ccccc1)[C@@H](C)c1ccccc1)[C@@H](C)c1ccccc1)[C@@H](C)c1ccccc1)[C@@H](C)c1ccccc1)C(=O)CN(C(=O)CNCCCCN)[C@@H](C)c1ccccc1 [peptoid 4] (H-[Nlys][Nspe][Nspe][Nlys][Nspe][Nspe][Nlys][Nspe][Nspe][Nlys][Nspe][Nspe][Gly(N(CH2)2(3-indolyl))]-NH2)	57.0	103.2±0.9	< 6.3	6.7
C[C@@H](c1ccccc1)N(CC(N)=O)C(=O)CN(C(=O)CN(CCCCN)C(=O)CN(C(=O)CN(C(=O)CN(CCCCN)C(=O)CN(C(=O)CN(C(=O)CN(CCCCN)C(=O)CN(C(=O)CN(C(=O)CN(CCCCN)C(=O)CNCCc1c[nH]c2ccccc12)[C@@H](C)c1ccccc1)[C@@H](C)c1ccccc1)[C@@H](C)c1ccccc1)[C@@H](C)c1ccccc1)[C@@H](C)c1ccccc1)[C@@H](C)c1ccccc1)[C@@H](C)c1ccccc1 [peptoid 3]	55.8	100.5±9.9	6.3	13.9
C[C@@H](c1ccccc1)N(CC(=O)N(CCCCN)CC(=O)N(CC(=O)N(CC(=O)N(CCCCN)CC(=O)N(CCc1c[nH]c2ccccc12)CC(=O)N(CCc1c[nH]c2ccccc12)CC(N)=O)[C@@H](C)c1ccccc1)[C@@H](C)c1ccccc1)C(=O)CN(C(=O)CN(CCCCN)C(=O)CN(CCc1c[nH]c2ccccc12)C(=O)CN(CCc1c[nH]c2ccccc12)C(=O)CNCCCCN)[C@@H](C)c1ccccc1 [peptoid 18] (H-[Nlys][Gly(N(CH2)2(3-indolyl))][Gly(N(CH2)2(3-indolyl))][Nlys][Nspe][Nspe][Nlys][Nspe][Nspe][Nlys][Gly(N(CH2)2(3-indolyl))][Gly(N(CH2)2(3-indolyl))]-NH2)	53.8	103.5±4.3	14.3	37.8

Now from value to molecule, other results behind:

HPLC elution [1] [% MeCN]	Structure (SMILES)	Hmax (100 µM) (rat erythrocytes) [%]	HC10 (rat erythrocytes) [µM]	HC50 (rat erythrocytes) [µM]
48.6	C[C@@H](c1ccccc1)N(CC(N)=O)C(=O)CN(C(=O)CN(CCCCN)C(=O)CN(C(=O)CN(C(=O)CN(CCCCN)C(=O)CN(C(=O)CN(CCCCN)C(=O)CN(CCCCN)C(=O)CN(CCc1c[nH]c2ccccc12)C(=O)CN(CCc1c[nH]c2ccccc12)C(=O)CNCCCCN)[C@@H](C)c1ccccc1)[C@@H](C)c1ccccc1)[C@@H](C)c1ccccc1)[C@@H](C)c1ccccc1 [peptoid 34]	8.5±1.1	> 100	> 100
47.8	C[C@@H](c1ccccc1)N(CC(=O)N(CCCCN)CC(=O)N(CCCCN)CC(=O)N(CC(=O)N(CC(=O)N(CCCCN)CC(=O)N(CC(=O)N(CC(=O)N(CCCCN)CC(N)=O)[C@@H](C)c1ccccc1)[C@@H](C)c1ccccc1)[C@@H](C)c1ccccc1)[C@@H](C)c1ccccc1)C(=O)CN(CCCCN)C(=O)CN(CCc1c[nH]c2ccccc12)C(=O)CNCCc1c[nH]c2ccccc12 [peptoid 38] (H-[Gly(N(CH2)2(3-indolyl))][Gly(N(CH2)2(3-indolyl))][Nlys][Nspe][Nlys][Nlys][Nspe][Nspe][Nlys][Nspe][Nspe][Nlys]-NH2)	5.9±0.5	> 100	> 100
50.8	C[C@@H](c1ccccc1)N(CC(N)=O)C(=O)CN(C(=O)CN(CCCCN)C(=O)CN(C(=O)CN(CCCCN)C(=O)CN(CCCCN)C(=O)CN(CCc1c[nH]c2ccccc12)C(=O)CN(C(=O)CN(CCCCN)C(=O)CN(C(=O)CN(C(=O)CNCCCCN)[C@@H](C)c1ccccc1)[C@@H](C)c1ccccc1)[C@@H](C)c1ccccc1)[C@@H](C)c1ccccc1)[C@@H](C)c1ccccc1 [peptoid 25]	2.7±0.4	> 100	> 100
47.8	C[C@@H](c1ccccc1)N(CC(N)=O)C(=O)CN(CCCCN)C(=O)CN(CCCCN)C(=O)CN(C(=O)CN(C(=O)CN(CCCCN)C(=O)CN(C(=O)CN(C(=O)CN(CCCCN)C(=O)CN(Cc1ccccc1)C(=O)CN(Cc1ccccc1)C(=O)CNCCCCN)[C@@H](C)c1ccccc1)[C@@H](C)c1ccccc1)[C@@H](C)c1ccccc1)[C@@H](C)c1ccccc1 [peptoid 47]	4.8±0.2	> 100	> 100
